This note sets out measurements from publication PMC5963591, “Bitopic Binding Mode of an M1 Muscarinic Acetylcholine Receptor Agonist Associated with Adverse Clinical Trial Outcomes” (Molecular Pharmacology, 2018).

One experiment addresses T1, M2 mAChR (Homo sapiens, UniProt P08172).
T1 construct: expressed in transfected cells; host or cells: CHO
The experiment in a line: ERK1/2 phosphorylation, CHO cells, M2. Type of experiment: cell-based.

The target in experiment [1] is [35S]-GTPγS Gαq binding in rat cortex membranes. Kind of experiment: Native tissue GTPγ[35S] binding assay (Gαq antibody capture). The format is biochemical. As for the experimental part:
GTPɣ-[^35S] ([^35S]ɣ[guanosine-5′-O-(3-[^35S]thio)triphosphate] binding in rat membranes was determined in triplicate using an antibody capture technique in 96-well plate format (DeLapp et al., 1999). Native rat membranes were prepared as follows. All procedures were performed at 4°C. Ten to fifteen milliliters of sucrose buffer (10 mM HEPES, 1 mM EGTA, 1 mM dithiothreitol, 10% sucrose, and one tablet/50 ml Complete Protease Inhibitor Cocktail, pH 7.4) was added to each tissue sample and homogenized for 10 strokes using an electric IKA RW20 homogenizer (800 rpm) (IKA, Staufen, Germany) with glass homogenizer. The homogenate was centrifuged at 1000g for 10 minutes at 4°C and the supernatant collected. The pellet was rehomogenized and centrifuged again as above and the supernatant pooled and centrifuged at 11,000g for 20 minutes at 4°C. The resulting pellet was suspended in 40 ml final storage buffer (10 mM HEPES, 1 mM EGTA, 1 mM MgCl2, and 1 mM dithiothreitol, pH 7.4) and centrifuged at 27,000g for 20 minutes at 4°C. The supernatant was removed and the final pellet was suspended in 2 ml final storage buffer. The protein concentration was measured using the Bradford method (Coomassie Plus, Bio-Rad protein assay kit; Bio-Rad, Hercules, CA) with bovine gamma globulin standards. […] Plates were counted for 1 minute/well using a Wallac MicroBeta Trilux scintillation counter (PerkinElmer). […]
On the technique in general: GTPγS is a poorly hydrolysed GTP analogue; its binding reports G protein activation.

Experiment [2] has as its target T2, human M1 mAChR (Homo sapiens, UniProt P11229).
T2 sequence (P11229 1-460): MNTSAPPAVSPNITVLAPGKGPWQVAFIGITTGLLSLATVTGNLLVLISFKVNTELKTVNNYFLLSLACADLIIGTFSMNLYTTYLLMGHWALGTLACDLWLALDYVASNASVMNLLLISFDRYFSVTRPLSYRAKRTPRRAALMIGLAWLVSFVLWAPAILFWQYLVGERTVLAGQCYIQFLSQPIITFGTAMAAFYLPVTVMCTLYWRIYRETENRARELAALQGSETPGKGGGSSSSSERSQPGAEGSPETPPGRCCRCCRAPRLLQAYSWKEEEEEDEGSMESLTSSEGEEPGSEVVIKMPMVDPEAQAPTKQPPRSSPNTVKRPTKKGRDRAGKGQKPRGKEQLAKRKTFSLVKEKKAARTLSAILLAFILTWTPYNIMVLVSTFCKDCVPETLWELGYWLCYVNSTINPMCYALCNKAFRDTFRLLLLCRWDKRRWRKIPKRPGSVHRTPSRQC
Kind of experiment: IP-One (IP1) accumulation assay, CHO Flp-In human M1 cells. The format is cell-based. The arrangement: expressed in transfected cells; host or cells: CHO Flp-In. On the procedure: Stimulation of IP accumulation was determined using the Cisbio IP-One Gq assay kit per the manufacturer’s instructions. […] CHO Flp-In cells stably expressing the human M1 mAChR were grown to confluence in T75 cell culture flasks at 37°C. Cells were washed with warm phosphate-buffered saline and detached using phosphate-buffered saline with 0.1 M EDTA. Detached cells were centrifuged at 1000g and the cells were resuspended in stimulation buffer.
All IP-One stimulations were terminated by the addition of 3 μl/well IP1-d2 solution, followed by 3 μl/well anti–IP1-cryptate solution and incubation for 1 hour at room temperature with shaking.
Functional concentration-response curves were fitted according to a four-parameter logistic equation (to determine minimum and maximum asymptotes, LogEC50, and slope; GraphPad Prism 6). […] In the absence of antagonist ([B] = 0), this equation becomes the standard four-parameter logistic equation for fitting agonist concentration-response data.

The target in experiment [3] is T2, human M1 mAChR. The note with it: 20 nM [^3H]-GSK1034702.
The target in experiment [4] is T3, M3 mAChR (isolated rat ileum) (Rattus norvegicus, UniProt P08483).
T3 construct: from tissue; host or cells: ileum of adult Wistar rats
T3 sequence (P08483 whole entry): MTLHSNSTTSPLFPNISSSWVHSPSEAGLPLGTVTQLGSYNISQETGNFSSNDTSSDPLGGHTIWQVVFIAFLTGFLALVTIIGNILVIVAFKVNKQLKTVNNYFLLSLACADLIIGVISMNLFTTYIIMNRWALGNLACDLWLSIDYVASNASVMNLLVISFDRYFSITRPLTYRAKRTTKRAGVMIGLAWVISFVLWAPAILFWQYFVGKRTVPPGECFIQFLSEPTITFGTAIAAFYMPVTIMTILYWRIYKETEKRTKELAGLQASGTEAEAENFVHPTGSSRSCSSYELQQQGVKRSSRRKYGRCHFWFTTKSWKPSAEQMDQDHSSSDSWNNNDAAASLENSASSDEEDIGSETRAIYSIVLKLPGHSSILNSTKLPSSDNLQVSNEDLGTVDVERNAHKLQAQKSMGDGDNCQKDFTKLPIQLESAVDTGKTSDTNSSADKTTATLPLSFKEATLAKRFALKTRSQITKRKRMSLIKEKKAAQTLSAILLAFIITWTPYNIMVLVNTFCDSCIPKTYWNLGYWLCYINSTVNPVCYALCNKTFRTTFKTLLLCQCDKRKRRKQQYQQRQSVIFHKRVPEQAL
The experiment in a line: Isolated rat ileum contraction. As to conditions: single experiment. As for the experimental part:
Adult Wistar rats were humanely euthanized and the left atria and the ileum were placed in an organ bath containing oxygenated Tyrode solution. Measurement of negative inotropic responses in atria or contraction of ileum was performed as described by [Lambrecht et al. (1989)]. For atrial responses, ligands were administered for 5 minutes at 32°C in McEwen’s buffer (pH 7.4) in a bath volume of 10 ml. […] For rat ileum experiments, ligands were administered for 5 minutes at 32°C in Krebs’ buffer (pH 7.4) in a bath volume of 10 ml. Contraction of ileum as a percentage of methacholine-induced contraction was measured, and antagonistic effects were measured by inhibition of methacholine-induced responses.

For experiment [5], the target named is T2, human M1 mAChR. The experiment in a line: IP1 accumulation after receptor alkylation with phenoxybenzamine (functional interaction with ACh).

T1 sequence (P08172 whole entry): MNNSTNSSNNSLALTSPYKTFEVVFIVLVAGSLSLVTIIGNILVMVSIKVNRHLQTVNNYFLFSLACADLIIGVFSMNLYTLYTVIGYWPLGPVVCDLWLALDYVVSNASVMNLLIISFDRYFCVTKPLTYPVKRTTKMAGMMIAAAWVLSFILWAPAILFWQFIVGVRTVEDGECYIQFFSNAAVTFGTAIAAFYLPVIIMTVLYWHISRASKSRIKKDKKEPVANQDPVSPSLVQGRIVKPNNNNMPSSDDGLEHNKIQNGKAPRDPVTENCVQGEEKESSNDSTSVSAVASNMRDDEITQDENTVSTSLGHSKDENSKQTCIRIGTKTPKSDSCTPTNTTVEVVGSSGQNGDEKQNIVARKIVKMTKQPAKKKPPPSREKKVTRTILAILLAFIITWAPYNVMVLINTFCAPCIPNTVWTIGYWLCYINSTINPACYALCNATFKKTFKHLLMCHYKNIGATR

What is called IC50 is the concentration needed to halve the response being measured. For the molecule `Cc1cc(F)c2[nH]c(=O)n(C3CCN(C4CCOCC4)CC3)c2c1` [GSK1034702, 7-fluoro-5-methyl-3-[1-(oxan-4-yl)piperidin-4-yl]-1H-benzimidazol-2-one], the “functional activity in ERK1/2 phosphorylation” value on M2 mAChR is recorded as “partial agonist activity”. For the same molecule, the “pEC50, [^35S]-GTPγS Gαq binding” value in experiment [1] is 6.7 ± 0.1. Further, in experiment [1] (% of maximum elicited by oxotremorine-M), the “[^35S]-GTPγS Gαq binding, maximum relative to oxotremorine-M” value is given as “approximately 37%”. Also, the Emax at human M1 mAChR [2] (% of the maximal response elicited by ACh, read-out: IP1 accumulation, maximal response relative to ACh) is roughly 90%. Moreover, the “IP1 Emax” value on human M1 mAChR [2] (CHO Flp-In human M1 cells) turned out to be 90.1 ± 2.9. For the same molecule, the EC50 at human M1 mAChR [2] (CHO Flp-In human M1 cells, read-out: IP1 pEC50 (converted)) is 0.0794 µM. Moreover, at human M1 mAChR [2] (normalized to reference ligand ACh), the “IP1 Accumulation ΔLog10(τ/KA)” value worked out at 0.3 ± 0.2. The “IP1 Accumulation Log10(τ/KA)” value at human M1 mAChR [2] (transduction coefficient, wild-type M1 mAChR) was 7.4 ± 0.2. For the same molecule, the “displacement of specific [^3H]-GSK1034702 binding” value at human M1 mAChR [3] is reported as “fully displaced”. In experiment [4], the EC50 was found to be 7 µM and the “rat ileum contraction, % of maximal methacholine-induced contraction” value is “approximately 50%”. Besides, in experiment [4] (read-out: IC50, inhibition of methacholine-induced contraction of rat ileum), the IC50 was 46 µM. Besides, the Kb on human M1 mAChR [5] is 0.631 µM. For the same molecule, the “agonist effect in IP1 accumulation after phenoxybenzamine” value at human M1 mAChR [5] (cells treated with 3 μM phenoxybenzamine) is given as “no agonist effect”.
